From PMC9238271, “The quorum sensing peptide EntF* promotes colorectal cancer metastasis in mice: a new factor in the host-microbiome interaction” (BMC Biology, 2022)
Several values for one entry are separate records, joined by “and”; a condition that tells them apart may be missing. Identical values can stand only once.

Experiments:
[1] = tested on: tumor nodules in the lungs; experiment: Orthotopic mouse model: histopathological evaluation of lungs; format: in vivo, female athymic nude mice (Swiss nu/nu)
Protocol: Six-week-old female athymic nude mice (Swiss nu/nu) were anesthetized, and a minimally invasive midline laparotomy was performed to localize the cecum. The cecum was then gently pulled out, and luciferase-transfected HCT-8/E11 cells (1 × 10^6 cells) in 20 μL serum-free DMEM medium with Matrigel (1:1) were injected into the cecal wall. Before implantation, cells were treated with EntF* (10^2 nM), Phr0662 (10^2 nM), vehicle (PBS), or TGFα positive control (0.1 μg mL^−1) solutions for 5 days. The cecum was then carefully placed back into the abdominal cavity and the surgical incision was closed with two layers of sutures with PDS 6-0. […] Once a week, mice were examined for tumor growth and metastases using bioluminescent imaging with the IVIS Lumina II (Perkin Elmer, Belgium) after i.p. injection with 200 μL luciferin (150 mg kg^−1). After 6 weeks, mice were euthanized using cervical dislocation, and the liver, diaphragm, lungs, cecum, duodenum, and peritoneum were macroscopically examined for the presence of tumor nodules. Liver and lung tissues were then fixed in formalin for 24 h and stored in 70% ethanol for maximum 3 days before embedding in paraffin. Next, a hematoxylin and eosin (H&E) staining was performed on 8 μm sections, and 3 sections per mouse were visualized using microscopy. Slides from tumor-bearing mice were analyzed by two blinded, independent investigators using the scoring system described in Additional file 5: Table S3. In case of differences, slides were scored by a third blinded, independent investigator for consensus.

[2] = EntF production in germ-free mice: EntF* in colon content and serum; format: in vivo, germ-free female C57BL6 mice
Protocol: Fifty microliters of serum were mixed with 150 μL 0.5% formic acid in acetonitrile. After sonication for 5 min, samples were vortexed for 5 s, then heated for 30 s at 100 °C. The solution was vortexed and centrifuged for 20 min at 20,000g at 4 °C. The supernatant was purified using solid phase extraction (SPE) on HyperSep C18 plates (Thermo Fisher Scientific, Belgium), previously conditioned with acetonitrile and equilibrated with 75% acetonitrile in water, containing 0.375% formic acid. After loading 150 μL of each sample, 120 μL eluent were collected and organic solvents evaporated using nitrogen (1 L/min) for 5 min. The resulting samples were further diluted with 30 μL of BSA-based anti-adsorption solution, and analyzed by LC-MS.
For EntF and EntF* colon content analysis, 50 mg of colon content were suspended in 100 μL of a 2% hydrochloric acid solution, vortexed and sonicated for 30 s. The suspension was centrifuged for 1 min at 3000g, and 50 μL of the supernatant was heated at 100 °C for 1 min and cooled on ice for 1 min. Samples were centrifuged again for 1 min at 10,000g, and 30 μL of supernatant was added to a 900 μL of a 3% DMSO solution in acetonitrile acidified with 0.1% formic acid (equilibration solution). Nine hundred microliters of the diluted samples was loaded on a HILIC amide SPE MonoSpin column previously conditioned with acetonitrile and equilibrated with the equilibration solution. Samples were eluted using a mixture of 75/20/5 (V/V/V) H2O/acetonitrile/DMSO acidified with 0.1% formic acid.
EntF* was detected and quantified on a Waters Acquity® UPLC H-class system, connected to a Waters Xevo™ TQ-S triple quadrupole mass spectrometer with electrospray ionization (operated in positive ionization mode). Autosampler tray and column oven were kept at 10 ± 5 °C and 60 ± 5 °C, respectively. Chromatographic separation was achieved on a Waters Acquity® UPLC BEH Peptide C18 column (300 Å, 1.7 μm, 2.1 mm × 100 mm). The mobile phases consisted of 93/2/5 water/acetonitrile/DMSO (V/V/V) containing 0.1% formic acid (mobile phase A) and 2/93/5 water/acetonitrile/DMSO (V/V/V) containing 0.1% formic acid (mobile phase B), and the flow rate was set to 0.5 mL/min. A 10-μL aliquot from each sample was injected. The gradient program started with 80% of mobile phase A for 1 min, followed by a linear gradient to 40% of mobile phase A for 3.5 min. Gradient was then changed to 14.2% mobile phase A at 5 min, followed by a 1 min equilibration, before starting conditions were applied. EntF* retention time was between 4.25 and 4.45 min.
Mice were obtained from the Ghent Germfree and Gnotobiotic mouse facility (LA1400637), maintained in a sterile environment under controlled conditions (light–dark cycle with light from 7:00 h to 17:00 h, temperature 21–25 °C, and humidity 45–65%). Twelve germ-free female C57BL6 mice were divided into 3 groups and each group (n = 4) was kept in a separate cage. At day 0, the placebo group was treated with the cell medium (BHI), the control group received a mixture of 3 EntF-negative E. faecium strains (NCIMB 10415; W54 and LMG S-28935 each 10^8 CFU per strain) suspended in 300 μL of BHI, while the test group received a mixture of 3 EntF-producing E. faecium strains (LMG 23236; T-110 and ATCC 8459 each 10^8 CFU/strain) suspended in 300 μL of BHI. […] Serum samples were stored at − 80 °C and subsequently analyzed for the presence of EntF* using LC1-MS1. […] Samples were further analyzed for the presence of EntF* using LC1-MS1.

CC(C)C[C@@H]1NC(=O)[C@H](CO)NC(=O)[C@H](Cc2ccccc2)NC(=O)[C@H](C(C)C)NC(=O)[C@@H](NC(=O)[C@H](CCC(=O)O)NC(=O)[C@@H](NC(=O)[C@H](CC(C)C)NC(=O)[C@H](CC(N)=O)NC(=O)[C@@H](N)CO)C(C)C)CSSC[C@@H](C(=O)N[C@@H](CC(N)=O)C(=O)O)NC(=O)[C@H](CCCCN)NC(=O)[C@H](CCCCN)NC(=O)[C@H](Cc2ccccc2)NC1=O (single isomer, unassigned) [EntF*]
number of tumor nodules in the lungs compared to the vehicle ([1]; 6 weeks of treatment, H&E histopathological score, n = 30 EntF*, n = 8 PBS): significantly higher number of tumor nodules
Histology scoring LUNGS, Scoring person 1 (ND) ([1]; individual samples, one line per sample): 3 and 4 and 0 and 1
Histology scoring LUNGS, conclusion per group ([1]; per group): 1
tissue level at time molar at 96 h ([2]; female, C57BL6, mouse, colon content, germ-free mice four days after oral gavage of 3 EntF-producing E. faecium strains (10^8 CFU/strain), LoD 1.9 pmol/g, LC1-MS1, mean ± SEM, n = 4, read-out: EntF* concentration in colon content): 0.01 ± 0.0032 nmol/g
EntF* in serum of the test group ([2]; germ-free mice four days after oral gavage of EntF-producing E. faecium strains, LC1-MS1): detected
EntF* in feces, Tot. Av. ([2]; gnotobiotic mice, feces, mean of 4 test mice): 9.726 pmol/g
EntF* serum concentration, Maximum Likelihood Function estimate ^µ ([2]; gnotobiotic mice, serum, 4 test mice, censored at yL 80 pM): 90.7384 pM
EntF* serum concentration, average ([2]; gnotobiotic mice, serum, average of the 3 test mice above LoD): 97.3333 pM
